Drawing on PubChem BioAssay (NCI), this text covers TGI for eleven molecules.

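Step 1: Grow cells in 96-well plates. Step 2: Expose to compound for 48 hours at 5 concentrations. Step 3: Interpolate endpoints linearly; if unreached, use highest concentration. TGI denotes the concentration required for complete inhibition of growth.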

Some test systems named below: HL-60(TB) leukemia; UACC-62 melanoma; OVCAR-4 ovarian; HS 578T breast; PC-3 prostate; NCI-H226 lung; A549 NSCLC; A498 renal; IGROV1 ovarian; NCI-H460 lung; 786-0 renal; SK-MEL-28 melanoma; UO-31 renal.
Test in all cases: inhibition of tumour cell growth, NCI panel, 48 h

As to `O=c1c2cccnc2[nH]c2ccc3scnc3c12`, the TGI in the test with HL-60(TB) leukemia, with UACC-62 melanoma, in the test on OVCAR-4 ovarian, in the test on HS 578T breast, in the test with PC-3 prostate and in the test with NCI-H226 lung was > 10 µM each time. The TGI in the test on A549 NSCLC, in the test on A498 renal, in the test on IGROV1 ovarian, in the test on NCI-H460 lung, in the test with 786-0 renal and in the test on SK-MEL-28 melanoma was > 10 µM throughout.

For `O=C(OCc1ccccc1)N1CCNCCNCC1`, the TGI in the test on HL-60(TB) leukemia, with UACC-62 melanoma, with OVCAR-4 ovarian, with HS 578T breast, with PC-3 prostate and with NCI-H226 lung was > 100 µM in each case. The TGI in the test with A549 NSCLC, with A498 renal, in the test with IGROV1 ovarian, in the test with NCI-H460 lung, with 786-0 renal and with SK-MEL-28 melanoma was > 100 µM in each case. Moreover, the TGI with UO-31 renal was > 100 µM.

`COC(=O)c1ccccc1C1CN=NC12Cc1c(C)cc(C)cc1C2=O` (stereo unspecified): the TGI in the test with HL-60(TB) leukemia, in the test with UACC-62 melanoma, in the test with OVCAR-4 ovarian, in the test on HS 578T breast, in the test with PC-3 prostate and in the test on NCI-H226 lung was > 100 µM in each case. The TGI in the test with A549 NSCLC, in the test with A498 renal, in the test on IGROV1 ovarian, in the test on NCI-H460 lung, in the test on 786-0 renal and with SK-MEL-28 melanoma was > 100 µM each time. Also, the TGI with UO-31 renal is > 100 µM.

As to `c1ccc(COCC23CCN(Cc4ccccc4)C(CC(OCc4ccccc4)C2)S3)cc1` (stereo unspecified), the TGI in the test on HL-60(TB) leukemia is 45.4 µM; in the test with UACC-62 melanoma it was > 100 µM; with OVCAR-4 ovarian, > 100 µM; with HS 578T breast it was > 100 µM; with PC-3 prostate, > 100 µM; in the test on NCI-H226 lung, > 100 µM. In addition, the TGI in the test on A549 NSCLC, with A498 renal, in the test with IGROV1 ovarian, in the test on NCI-H460 lung, in the test on 786-0 renal and with SK-MEL-28 melanoma was > 100 µM in each case. Also, the TGI in the test with UO-31 renal is > 100 µM.

On to `C1COC2SC3=C(SC(=C4SC5=C(SCCS5)S4)S3)SC2O1` (stereo unspecified), for which the TGI in the test with HL-60(TB) leukemia, in the test on UACC-62 melanoma, in the test on OVCAR-4 ovarian, with HS 578T breast, in the test on PC-3 prostate and in the test on NCI-H226 lung was > 100 µM in each case. Further, the TGI in the test with A549 NSCLC, with A498 renal, with IGROV1 ovarian, in the test on NCI-H460 lung, in the test on 786-0 renal and in the test with SK-MEL-28 melanoma was > 100 µM in each case. Also, the TGI in the test on UO-31 renal was > 100 µM.

For the molecule `CN(C)c1ccc(N=Nc2cccc3ccoc23)cc1`, the TGI in the test on HL-60(TB) leukemia is > 74.7 µM; in the test on UACC-62 melanoma, > 100 µM; in the test on OVCAR-4 ovarian, > 100 µM; in the test on HS 578T breast, > 100 µM; in the test with PC-3 prostate, > 100 µM; in the test with NCI-H226 lung, > 100 µM. The TGI with A549 NSCLC, in the test on A498 renal, in the test with IGROV1 ovarian, in the test with NCI-H460 lung, with 786-0 renal and with SK-MEL-28 melanoma was > 100 µM throughout. For the same molecule, the TGI in the test with UO-31 renal was > 74.3 µM.

Regarding `Cc1cc(C)c2c(=O)cc(-c3ccc(Cl)cc3)[nH]c2n1`, the TGI is > 83 µM in the test with HL-60(TB) leukemia; > 100 µM in the test with UACC-62 melanoma; > 100 µM in the test on OVCAR-4 ovarian; > 100 µM with HS 578T breast; > 50.7 µM with PC-3 prostate; > 100 µM in the test on NCI-H226 lung. For the same molecule, the TGI was > 100 µM with A549 NSCLC; > 100 µM in the test on A498 renal; > 100 µM in the test on IGROV1 ovarian; > 100 µM with NCI-H460 lung; > 100 µM in the test with 786-0 renal; > 75.2 µM in the test on SK-MEL-28 melanoma. Also, in the test on UO-31 renal, the TGI was > 93.9 µM.

In the case of `CCOC(=O)C(NNS(=O)(=O)c1ccc(C)cc1)S(=O)(=O)C(F)(F)C(F)(F)C(F)(F)C(F)(F)F` (stereo unspecified), the TGI with HL-60(TB) leukemia, in the test on UACC-62 melanoma, with OVCAR-4 ovarian, in the test on HS 578T breast, with PC-3 prostate and in the test with NCI-H226 lung was > 100 µM each time. Moreover, the TGI with A549 NSCLC, in the test on A498 renal, in the test on IGROV1 ovarian, in the test with NCI-H460 lung, in the test on 786-0 renal and in the test with SK-MEL-28 melanoma was > 100 µM each time. Besides, in the test with UO-31 renal, the TGI was > 100 µM.

Turning to `COC1Cc2c(C)c(OC(C)=O)c3cccnc3c2O1` (stereo unspecified), the TGI with HL-60(TB) leukemia was 25.3 µM; in the test on UACC-62 melanoma it was 29 µM; in the test with OVCAR-4 ovarian it was 30.1 µM; in the test on HS 578T breast it was > 100 µM; in the test on PC-3 prostate, > 100 µM; with NCI-H226 lung, > 100 µM. Moreover, the TGI was 34 µM in the test on A549 NSCLC; > 100 µM in the test with A498 renal; 37.3 µM in the test on IGROV1 ovarian; 61.5 µM with NCI-H460 lung; 34.3 µM in the test with 786-0 renal; 53 µM in the test with SK-MEL-28 melanoma. Also, the TGI in the test on UO-31 renal was determined as 27.3 µM.

Take `COc1cccc2c1C(=O)C(=O)c1c-2oc(=O)c2cc(C)cc(OC)c12`: the TGI in the test on HL-60(TB) leukemia was 49.9 µM; with UACC-62 melanoma it was > 75 µM; in the test on OVCAR-4 ovarian, 26.7 µM; with HS 578T breast it was 55.1 µM; in the test on PC-3 prostate, > 75 µM; in the test on NCI-H226 lung, > 75 µM. Besides, the TGI in the test on A549 NSCLC is > 75 µM; with A498 renal, > 75 µM; in the test on IGROV1 ovarian, 32 µM; in the test on NCI-H460 lung it was > 75 µM; in the test on 786-0 renal, > 75 µM; with SK-MEL-28 melanoma, > 75 µM. The TGI in the test with UO-31 renal is > 75 µM.

As for `C=C(Cl)C(C)(Cl)CCC(Cl)C(C)(C)Cl` (stereo unspecified), the TGI in the test with HL-60(TB) leukemia, with OVCAR-4 ovarian, in the test with HS 578T breast, in the test with PC-3 prostate, with NCI-H226 lung and with A549 NSCLC was > 100 µM in each case. Besides, the TGI in the test with A498 renal, in the test on IGROV1 ovarian, in the test with NCI-H460 lung, with 786-0 renal, with SK-MEL-28 melanoma and in the test on UO-31 renal was > 100 µM in each case.
